Patent US7741124B2, “Detection procedures for fibrinogen and/or fibrinogen derivatives” (priority 2003, dated 2010)
Read-outs that look alike come from different tables or passages of the source.

Legend:
Assay type in all cases: biochemical
fibrinogen [1] = target: T1, fibrinogen (Homo sapiens, UniProt P02671+P02675+P02679); assay: FIFTA of chloramine-T oxidized / EDTA-supplemented plasma
T1 construct: pooled patient plasma (P-Pool, n=32 single plasmas); from tissue; host or cells: pooled citrated patient plasma (P-Pool, Fbgen-Pool-Plasma)
T1 sequence (P02671 20-644 isoform P02671-2 limits assumed): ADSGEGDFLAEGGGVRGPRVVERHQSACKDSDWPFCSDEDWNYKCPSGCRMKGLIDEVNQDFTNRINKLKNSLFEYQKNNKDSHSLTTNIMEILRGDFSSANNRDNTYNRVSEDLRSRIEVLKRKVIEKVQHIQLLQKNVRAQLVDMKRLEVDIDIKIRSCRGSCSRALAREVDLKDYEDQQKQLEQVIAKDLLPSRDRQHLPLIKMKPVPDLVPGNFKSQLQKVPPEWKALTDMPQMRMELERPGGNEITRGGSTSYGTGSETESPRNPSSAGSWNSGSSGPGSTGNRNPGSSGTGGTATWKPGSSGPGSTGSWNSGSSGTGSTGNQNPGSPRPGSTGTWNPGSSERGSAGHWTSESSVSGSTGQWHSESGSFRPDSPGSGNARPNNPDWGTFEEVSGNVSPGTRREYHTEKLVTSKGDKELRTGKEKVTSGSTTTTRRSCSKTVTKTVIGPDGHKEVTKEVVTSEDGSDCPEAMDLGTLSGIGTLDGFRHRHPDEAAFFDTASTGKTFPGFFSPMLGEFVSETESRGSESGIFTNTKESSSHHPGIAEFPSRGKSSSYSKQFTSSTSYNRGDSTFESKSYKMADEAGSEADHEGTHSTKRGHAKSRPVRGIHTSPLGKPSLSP
T1 sequence (P02675 31-491): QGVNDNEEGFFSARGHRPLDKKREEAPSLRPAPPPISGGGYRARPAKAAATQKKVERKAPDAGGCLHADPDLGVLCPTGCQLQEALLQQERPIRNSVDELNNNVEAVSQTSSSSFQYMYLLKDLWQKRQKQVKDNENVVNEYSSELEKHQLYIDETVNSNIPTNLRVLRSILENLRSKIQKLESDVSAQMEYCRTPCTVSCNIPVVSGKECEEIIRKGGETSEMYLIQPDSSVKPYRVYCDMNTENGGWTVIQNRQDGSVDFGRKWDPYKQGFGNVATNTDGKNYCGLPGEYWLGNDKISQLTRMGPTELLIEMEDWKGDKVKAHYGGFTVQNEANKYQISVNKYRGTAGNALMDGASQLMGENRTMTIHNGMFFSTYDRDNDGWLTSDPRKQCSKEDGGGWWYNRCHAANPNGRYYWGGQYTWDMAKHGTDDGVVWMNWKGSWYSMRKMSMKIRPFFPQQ
T1 sequence (P02679 27-437 isoform P02679-2 limits assumed): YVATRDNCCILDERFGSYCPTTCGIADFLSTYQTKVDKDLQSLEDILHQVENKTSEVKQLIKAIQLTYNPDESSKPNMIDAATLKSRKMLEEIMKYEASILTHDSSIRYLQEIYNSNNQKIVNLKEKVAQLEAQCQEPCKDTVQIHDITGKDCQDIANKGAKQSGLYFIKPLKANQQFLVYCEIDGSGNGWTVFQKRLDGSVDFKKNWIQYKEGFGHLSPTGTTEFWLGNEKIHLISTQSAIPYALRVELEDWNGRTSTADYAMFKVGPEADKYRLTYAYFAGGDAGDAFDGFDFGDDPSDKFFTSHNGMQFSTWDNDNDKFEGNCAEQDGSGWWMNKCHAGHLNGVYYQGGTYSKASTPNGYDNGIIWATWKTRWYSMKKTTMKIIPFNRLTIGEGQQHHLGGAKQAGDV
Protocol: The absorption at 405 nm is immediately measured (base value) and exactly after 5 min, if the reaction is performed at room temperature (23° C.). If the reaction is performed at 37° C., the second value is measured after 2 min. A microtiterplate reader (Milenia, DPC, Los Angeles, USA) is used. The increase in absorption (ΔA) is determined and the results are standardized against a pooled plasma of known, preferably of 100% of norm, fibrinogen-activity (Table 1).
(§1) 25 μl P-Pool or P-Pool supplemented with 8.6 mM (3.2 g/l) EDTA were incubated with 25 μl 0-89 mM chloramine-T® in PBS for 60 min at RT. Then the FIATA and the FIFTA were performed. For the FIATA, 25 μl PBS were added and the absorbance at 405 nm was determined (base value). 50 μl 4.4 mM vancomycin in PBS were added and after 1 min (RT) the absorbance at 405 nm was determined again (Table 1). […] 100% control=P-Pool without oxidant.
(§2) 25 μl P-Pool was incubated with 25 μl PBS or with 25 μl 2 mM CT in PBS. After 60 min RT, 25 μl 0-172 mM EDTA in PBS was added. After 5 min RT the FIATA and the FIFTA were performed as indicated in 2.7.

fibrinogen [2] = assay: FIATA (vancomycin reactivity) of chloramine-T oxidized / EDTA-supplemented plasma; details: EDTA at concentrations of 50-100 mM
Protocol: To 25 μl plasma 50 μl PBS are added and the absorbance (405 nm) is determined (base value). Then 50 μl 4.4 mM vancomycin in PBS are added. The absorbance at 405 nm is determined after 2 min, if the reaction is performed at room temperature (23° C.). If the reaction is performed at 37° C., the second value is determined after 1 min. A microtiterplate reader (Milenia, DPC, Los Angeles, USA) is used. The increase in absorption (ΔA) is determined and the results are standardized against a pooled plasma of known, preferably of 100% of norm, fibrinogen-concentration, and against 0.9% NaCl (zero-value of turbidity) (Table 2).
as §1, §2

heparin = assay: Neutralization of heparin in plasma by Polybrene in the FIFTA
Protocol: P-Pool supplemented with 0-80 IU/ml heparin was analyzed in the FIFTA. The FIFTA-reagent contained 200 mIU/ml thrombin, 6% BSA-PBS and 0, 50, 100, 200, 400, 800, or 1600 μg/ml Polybrene® (PB, hexadimethrinebromide).
25 μl 0-75 mg/ml Polybrene® in aqua dest. were added to 50 μl P-Pool or to 50 μl P-Pool, that had been supplemented with 100 IU/ml heparin. Then 100 μl 200 miU/ml thrombin in 6% BSA-PBS, 400 μg/ml PB were added and the increase in absorbance at 405 nm was determined.
50 μl P-Pool with 0-80 IU/ml heparin were incubated with 100 μl FIFTA-reagent without thrombin, that contained 0, 400, 800, or 1600 μg/ml PB. The increase in absorbance at 405 nm was determined.

[3] = tested on: thrombin/fibrinogen interaction; assay: Inhibition of fibrin generation by arginine (FIFTA turbidity); details: for IC50: read-out: arginine conc. at halfmaximal turbidity increase
Protocol: The turbidity increase was calculated by subtracting the basal absorbance from the absorbance generated by thrombin (addition of 100 μl FIFTA-reagent without thrombin results into an approximate increase of absorbance of 100 mA compared to the absorbance of 50 μl sample). c) 50 μl P-Pool were incubated with 100 μl FIFTA-reagent.

fibrin = target: T2, fibrin (Homo sapiens, UniProt P02671+P02675+P02679); assay: Fibrin dissolution by arginine
T2 construct: The FIFTA imitates the physiological conversion of fibrinogen to fibrin; from tissue; host or cells: pooled citrated patient plasma (P-Pool), clotted in the well with thrombin reagent for 30 min
T2 sequence (P02671 36-629 limits assumed): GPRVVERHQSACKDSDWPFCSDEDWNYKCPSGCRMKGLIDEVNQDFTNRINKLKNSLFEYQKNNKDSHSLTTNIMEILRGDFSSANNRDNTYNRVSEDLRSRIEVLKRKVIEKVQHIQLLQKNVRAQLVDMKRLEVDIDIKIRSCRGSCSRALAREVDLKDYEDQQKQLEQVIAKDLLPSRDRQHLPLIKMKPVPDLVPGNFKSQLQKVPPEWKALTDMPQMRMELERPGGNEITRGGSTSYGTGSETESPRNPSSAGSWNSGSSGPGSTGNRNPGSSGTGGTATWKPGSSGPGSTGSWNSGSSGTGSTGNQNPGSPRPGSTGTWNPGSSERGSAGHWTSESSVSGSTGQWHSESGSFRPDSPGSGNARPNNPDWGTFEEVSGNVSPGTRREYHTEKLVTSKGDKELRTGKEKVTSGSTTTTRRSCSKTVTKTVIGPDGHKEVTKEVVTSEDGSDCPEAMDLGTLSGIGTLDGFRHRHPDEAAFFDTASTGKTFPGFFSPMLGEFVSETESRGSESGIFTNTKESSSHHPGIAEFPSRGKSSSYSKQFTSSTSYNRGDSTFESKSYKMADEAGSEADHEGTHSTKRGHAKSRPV
T2 sequence (P02675 45-491 limits assumed): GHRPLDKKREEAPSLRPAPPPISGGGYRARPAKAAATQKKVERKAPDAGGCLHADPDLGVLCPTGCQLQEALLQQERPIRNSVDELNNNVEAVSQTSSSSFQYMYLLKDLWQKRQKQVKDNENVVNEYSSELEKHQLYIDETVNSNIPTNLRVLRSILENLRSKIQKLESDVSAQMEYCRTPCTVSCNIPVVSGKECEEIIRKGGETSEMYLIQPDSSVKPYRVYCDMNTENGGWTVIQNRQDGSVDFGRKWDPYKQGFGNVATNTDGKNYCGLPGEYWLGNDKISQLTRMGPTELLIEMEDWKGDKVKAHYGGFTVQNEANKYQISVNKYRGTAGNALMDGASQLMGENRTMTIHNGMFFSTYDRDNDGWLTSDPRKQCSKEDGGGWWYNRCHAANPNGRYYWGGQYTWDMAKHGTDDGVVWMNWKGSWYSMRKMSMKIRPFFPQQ
T2 sequence (P02679 27-437 isoform P02679-2 limits assumed): T1 sequence (P02679 27-437 isoform P02679-2 limits assumed)
Protocol: 50 μl P-Pool were incubated with 100 μl FIFTA-reagent.

thrombin = target: T3, thrombin (Bos taurus, UniProt P00735); assay: Inhibitory time point 50% (ITP50) of 10 IU/ml heparin-thrombin interaction; details: 133 mIU/ml thrombin, RT
T3 construct: 100 μl 200 mIU/ml thrombin in 6% BSA-PBS (without Polybrene®)
Protocol: 50 μl P-Pool were incubated with 100 μl 200 miU/ml thrombin in 6% BSA-PBS (without Polybrene®). At 0 min (prior to thrombin addition) and 0.5-11 min reaction time (at RT) 10 μl 160 IU/ml heparin in 6% BSA-PBS was added (final heparin conc. in plasma+thrombin reagent=10 IU/ml; this heparin conc. increased the absorbance by 20 mA; all test results were corrected by this heparin induced turbidity increase). The turbidity increase at 405 nm was determined immediately after each heparin addition step and as a function of incubation time.
To determine the heparin addition time point (at RT) that is needed to decrease the 5 min, 10 min, 15 min or 20 min turbidity increase by 50% (inhibitory time point 50%=ITP), 50 μl P-Pool were incubated with 100 μl 200 mIU/ml thrombin in 6% BSA-PBS (without Polybrene®). After 0 s (prior to thrombin addition) and 10-140 s (in 10 s intervals) 10 μl 160 IU/ml heparin in 6% BSA-PBS were added. The turbidity increase at 405 nm as a function of incubation time (3-20 min) was determined.

Compound: O=C(O)CN(CCN(CC(=O)O)CC(=O)O)CC(=O)O [EDTA]
- decrease of FIFTA activity (fibrinogen [1]; EDTA at concentrations >5 mmol/l, 0 mM or 2 mM oxidized samples): about 50%
- FIFTA decrease (fibrinogen [1]; addition of 8.6 mM EDTA, independent of oxidant concentration): about 50%
- decrease of FIATA result (fibrinogen [2]): 10-20%

Compound: hexadimethrinebromide [Polybrene®]
- plasmatic heparin concentration neutralized (heparin; 400 μg/ml Polybrene in FIFTA-reagent): up to 20 IU/ml
- PB needed for neutralization of 1 part of 100 IU/ml heparinized plasma (heparin; 1 part PB, includes 400 μg/ml PB of FIFTA-reagent): 26 mg/mL
- PB concentration that completely antagonizes 100 IU/ml heparin (heparin; 25 μl PB added to 50 μl plasma): ≥ 50 mg/mL

Compound: N=C(N)NCCC[C@H](N)C(=O)O [arginine]
- increase of the turbidity increase ([3]; 16 mM arginine): about 20%
- final arginine conc. that completely inhibits turbidity increase ([3]; arginine acts in the first 4 min (RT) of thrombin/fibrinogen interaction): ≥ 250 mM
- time window in which arginine can inhibit turbidity increase ([3]; final arginine conc. ≧250 mM, RT (FIG. 16d)): ≤ 3 min
- IC50 ([3]; added at the 7 min reaction time point): 94 mM
- IC50 ([3]; arginine acts since the begin of thrombin action): 62.5 mM
- time to halfmaximal decrease of ΔA (fibrin; 477 mM arginine added at 12 min or 30 min reaction time point, RT): 30 min
- maximal ΔA that remains refractory to clearing (fibrin; arginine incubation >100 min): about 30%

Compound: thrombin
- time in which about 50% of plasmatic fibrinogen is converted (thrombin): approximately 30 seconds
